# Results published in publication PMC6326999, “Functionalized Magnetic Bacterial Cellulose Beads as Carrier for Lecitase® Ultra Immobilization” (Applied Biochemistry and Biotechnology, 2018).
# Test system: T1, Lecitase® Ultra (LU)
# T1 construct: gene LIP; commercial preparation (Sigma-Aldrich), free enzyme
# Experiment: absorbance at […] nm, hydrolysis initial rates, non-linear Michaelis-Menten fit
# Assay type: biochemical
# Conditions: free enzyme; 50 mM Tris-Cl pH 8.5, 0.25% Triton X-100, 30 °C (standard assay); commercial preparation; kcat column headed 'Kcat × 10^3 (s^-1)'
compound,measurement,value
CCCCCCCCCCCCCCCC(=O)Oc1ccc([N+](=O)[O-])cc1 [4-nitrophenol palmitate],Km,450 ± 50 µM
